Experimental data: patent US20080012929A1, “AZO DYE, HEAT-SENSITIVE TRANSFER RECORDING INK SHEET, HEAT-SENSITIVE TRANSFER RECORDING METHOD, COLOR TONER, INKJET INK AND COLOR FILTER” (FUJIFILM Corporation, priority 2006, published 2008)

Legend:
[1] = Light stability (fastness to light) of the dye image under Xenon light irradiation; format: physicochemical; conditions: residual ratio of Status A reflection density (initial 1.0) after Xenon light (17000 lux) for 7 days
Protocol: Next, each of the thus-image-recorded heat-sensitive transfer image-receiving materials was subjected to irradiation with Xenon light (17000 lux) for 7 days, to examine light stability (fastness to light) of the dye image. Status A reflection densities after irradiation were measured in the portions indicating Status A reflection density of 1.0, and a stability of the image was evaluated in terms of a residual ratio (percentage) based on the reflection density before irradiation, according to the following three grades: • A: 80% or more, but 100% or less • B: 60% or more, but less than 80% • C: less than 60%

[2] = Solubility of dye when preparing the ink sheet dye-providing layer-coating composition; format: physicochemical; set-up: key: A: the dye easily dissolves; B: the dye dissolves; C: the dye is sparingly soluble, but dissolves; conditions: methyl ethyl ketone/toluene (1/1), polyvinylbutyral resin
Protocol: A polyester film of 6.0 μm in thickness (trade name: Lumirror, manufactured by Toray Industries, Inc.), a back surface of which had been subjected to a heat resistant lubricating treatment with a 1 μm thick thermosetting acrylic resin, was used as a support. On the front surface of the film, the following dye-providing layer-coating composition was coated by a wire bar coating so that a dry thinness of the dye-providing layer became 1 μm. Thus, Ink sheet 1 was prepared.
Solubility of these dyes contained in these ink sheets were evaluated according to the following three grades: • A: the dye easily dissolves. • B: the dye dissolves. • C: the dye is sparingly soluble, but dissolves.

SMILES	Light fastness [1]	Solubility of dye [2]
CCCCN(CCCC)C(=O)c1ccc2c(c1)C(=O)C(c1nc3ccc(C(C)C)cc3cc1O)C2=O (stereo not drawn) [Dye for Comparison 3, reference compound]	A (80% or more, but 100% or less)	B
CC(C)Cn1nc(C(C)(C)C)c(N=Nc2ccc([N+](=O)[O-])cc2)c1N [(7)]	A (80% or more, but 100% or less)	A
CCC(C)n1nc(C(C)(C)C)c(N=Nc2ccc([N+](=O)[O-])cc2)c1N (stereo not drawn) [(8)]	A (80% or more, but 100% or less)	A
CCN(CCOc1ccc(C2CCCCC2)cc1)c1ccc(C=C(C#N)C#N)c(C)c1 [Dye for Comparison 2, reference compound]	C (less than 60%)	A

Continued, values first:

Light fastness [1]	Solubility of dye [2]	SMILES
A (80% or more, but 100% or less)	A	CCCCCn1nc(C(C)(C)C)c(N=Nc2ccc([N+](=O)[O-])cc2)c1N [(5)]
A (80% or more, but 100% or less)	A	CC(C)CCn1nc(C(C)(C)C)c(N=Nc2ccc([N+](=O)[O-])cc2)c1N [(9)]
